Laboratory results reported in patent US12428406B2 (PMV Pharmaceuticals, Inc., priority 2019, dated 2025).

Each compound was assayed against T1, p53 Y220C (Homo sapiens, UniProt P04637, Y220C) (assay: In vitro DNA binding activity assay (HTRF / TR-FRET): stabilization of p53 Y220C and increase of its DNA binding activity). Conditions: recombinant His-tagged p53 Y220C DNA binding domain (aa 94-312), biotin-labeled consensus DNA, incubated at 27° C. or 29° C. for 60 min.
T1 construct: The recombinant protein was a truncation mutant containing only amino acids 94-312 of p53; made in house; host or cells: E. coli
T1 sequence (P04637 94-312, change not shown): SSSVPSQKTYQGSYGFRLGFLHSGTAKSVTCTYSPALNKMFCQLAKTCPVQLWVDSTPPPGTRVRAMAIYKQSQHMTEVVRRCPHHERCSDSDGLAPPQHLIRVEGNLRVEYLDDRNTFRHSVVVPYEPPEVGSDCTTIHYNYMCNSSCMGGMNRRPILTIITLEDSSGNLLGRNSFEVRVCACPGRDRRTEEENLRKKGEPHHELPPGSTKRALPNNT
Type: biochemical
Method in brief: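 Test compounds, diluted 3-fold in DMSO from 4.5 mM stocks, were incubated with bacterially expressed His-tagged p53 Y220C at room temperature for 15 min, and after a further step for 20 min. DNA binding was detected by time-resolved FRET between APC and europium labels. SC150 marks the concentration increasing binding by 50%.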

SC150 (concentration of the compound required to increase the DNA binding activity by 50%), + (+ = 0 μM ≤ SC150 < 0.05 μM):
CNC(=O)c1ccc(NCC#Cc2cc3c(NC4CCN(CCOC)CC4)cccc3n2CC(F)(F)F)c(OC)c1 [Compound 616A, 3-methoxy-4-{[3-(4-{[1-(2-methoxyethyl)piperidin-4-yl]amino}-1-(2,2,2-trifluoroethyl)-1H-indol-2-yl)prop-2-yn-1-yl]amino}-N-methylbenzamide]
CNS(=O)(=O)c1ccc(NCC#Cc2cc3c(NC4CCN(CCOC)CC4)cccc3n2CC(F)(F)F)c(OC)c1 [Compound 617A, 3-methoxy-4-{[3-(4-{[1-(2-methoxyethyl)piperidin-4-yl]amino}-1-(2,2,2-trifluoroethyl)-1H-indol-2-yl)prop-2-yn-1-yl]amino}-N-methylbenzene-1-sulfonamide]
COc1cc(S(N)(=O)=O)ccc1NCC#Cc1cc2c(NC3CCN(CCOC(C)=O)CC3)cccc2n1CC(F)(F)F [Compound 618A]
COCC(CN1CCC(Nc2cccc3c2cc(C#CCNc2ccc(S(N)(=O)=O)cc2OC)n3CC(F)(F)F)CC1)OC(C)=O (stereo not drawn) [Compound 619A, 1-methoxy-3-{4-[(2-{3-[(2-methoxy-4-sulfamoylphenyl)amino]prop-1-yn-1-yl}-1-(2,2,2-trifluoroethyl)-1H-indol-4-yl)amino]piperidin-1-yl}propan-2-yl acetate]
COCC(O)CN1CCC(Nc2cccc3c2cc(C#CCNc2ccc(C(N)=O)cc2OC)n3CC(F)(F)F)CC1 (stereo not drawn) [Compound 620A, 4-{[3-(4-{[1-(2-hydroxy-3-methoxypropyl)piperidin-4-yl]amino}-1-(2,2,2-trifluoroethyl)-1H-indol-2-yl)prop-2-yn-1-yl]amino}-3-methoxybenzamide]
COCC(O)CN1CCC(Nc2cccc3c2cc(C#CCNc2ccc(S(C)(=O)=O)cc2O)n3CC(F)(F)F)CC1 (stereo not drawn) [Compound 621A, 2-{[3-(4-{[1-(2-hydroxy-3-methoxypropyl)piperidin-4-yl]amino}-1-(2,2,2-trifluoroethyl)-1H-indol-2-yl)prop-2-yn-1-yl]amino}-5-methanesulfonylphenol]
COCC(O)CN1CCC(Nc2cccc3c2cc(C#CCNc2ccc(S(=O)(=O)N(C)C)cc2OC)n3CC(F)(F)F)CC1 (stereo not drawn) [Compound 622A]
COc1cc(S(N)(=O)=O)ccc1NCC#Cc1cc2c(NC3CCN(C[C@H](CO)OC)CC3)cccc2n1CC(F)(F)F [Compound 623A, 4-({3-[4-({1-[(2R)-3-hydroxy-2-methoxypropyl]piperidin-4-yl}amino)-1-(2,2,2-trifluoroethyl)-1H-indol-2-yl]prop-2-yn-1-yl}amino)-3-methoxybenzene-1-sulfonamide]
CCC(=O)N(C)S(=O)(=O)c1ccc(NCC#Cc2cc3c(NC4CCN(CC(O)COC)CC4)cccc3n2CC(F)(F)F)c(OC)c1 (stereo not drawn) [Compound 624A, N-(4-{[3-(4-{[1-(2-hydroxy-3-methoxypropyl)piperidin-4-yl]amino}-1-(2,2,2-trifluoroethyl)-1H-indol-2-yl)prop-2-yn-1-yl]amino}-3-methoxybenzenesulfonyl)-N-methylpropanamide]
COCC(O)CN1CCC(Nc2cccc3c2cc(C#CCNc2ccc(S(C)(=O)=O)cc2OCCF)n3CC(F)(F)F)CC1 (stereo not drawn) [Compound 625A, 1-(4-{[2-(3-{[2-(2-fluoroethoxy)-4-methanesulfonylphenyl]amino}prop-1-yn-1-yl)-1-(2,2,2-trifluoroethyl)-1H-indol-4-yl]amino}piperidin-1-yl)-3-methoxypropan-2-ol]
CCC(=O)NS(=O)(=O)c1ccc(NCC#Cc2cc3c(NC4CCN(CC(COC)OC(=O)CC)CC4)cccc3n2CC(F)(F)F)c(OC)c1 (stereo not drawn) [Compound 627A, 1-methoxy-3-(4-{[2-(3-{[2-methoxy-4-(propanamidosulfonyl)phenyl]amino}prop-1-yn-1-yl)-1-(2,2,2-trifluoroethyl)-1H-indol-4-yl]amino}piperidin-1-yl)propan-2-yl propanoate]
CCC(=O)NS(=O)(=O)c1ccc(NCC#Cc2cc3c(NC4CCN(CC(COC(=O)CC)OC(=O)CC)CC4)cccc3n2CC(F)(F)F)c(OC)c1 (stereo not drawn) [Compound 628A, 1-(4-{[2-(3-{[2-methoxy-4-(propanamidosulfonyl)phenyl]amino}prop-1-yn-1-yl)-1-(2,2,2-trifluoroethyl)-1H-indol-4-yl]amino}piperidin-1-yl)-3-(propanoyloxy)propan-2-yl propanoate]
COc1cc(S(C)(=O)=O)ccc1NCC#Cc1cc2c(NC3CCN(C[C@H](CO)OC)CC3)cccc2n1CC(F)(F)F [Compound 629A, (2R)-3-{4-[(2-{3-[(4-methanesulfonyl-2-methoxyphenyl)amino]prop-1-yn-1-yl}-1-(2,2,2-trifluoroethyl)-1H-indol-4-yl)amino]piperidin-1-yl}-2-methoxypropan-1-ol]
COc1cc(S(C)(=O)=O)ccc1NCC#Cc1cc2c(NC3CCN(C[C@@H](CO)OC)CC3)cccc2n1CC(F)(F)F [Compound 630A, (2S)-3-{4-[(2-{3-[(4-methanesulfonyl-2-methoxyphenyl)amino]prop-1-yn-1-yl}-1-(2,2,2-trifluoroethyl)-1H-indol-4-yl)amino]piperidin-1-yl}-2-methoxypropan-1-ol]
CCOc1cc(S(C)(=O)=O)ccc1NCC#Cc1cc2c(NC3CCN(CC(O)COC)CC3)cccc2n1CC(F)(F)F (stereo not drawn) [Compound 631A, 1-{4-[(2-{3-[(2-ethoxy-4-methanesulfonylphenyl)amino]prop-1-yn-1-yl}-1-(2,2,2-trifluoroethyl)-1H-indol-4-yl)amino]piperidin-1-yl}-3-methoxypropan-2-ol]
COc1cc(S(N)(=O)=O)ccc1NCC#Cc1cc2c(NC3CCN(C[C@@H](CO)OC)CC3)cccc2n1CC(F)(F)F [Compound 632A, 4-({3-[4-({l-[(2S)-3-hydroxy-2-methoxypropyl]piperidin-4-yl}amino)-1-(2,2,2-trifluoroethyl)-1H-indol-2-yl]prop-2-yn-1-yl}amino)-3-methoxybenzene-1-sulfonamide]
COCC(O)CN1CCC(Nc2cccc3c2cc(C#CCNc2ccc(C(=O)NC(C)C)cc2OC)n3CC(F)(F)F)CC1 (stereo not drawn) [Compound 633A, 4-{[3-(4-{[1-(2-hydroxy-3-methoxypropyl)piperidin-4-yl]amino}-1-(2,2,2-trifluoroethyl)-1H-indol-2-yl)prop-2-yn-1-yl]amino}-3-methoxy-N-(propan-2-yl)benzamide]
COCC(O)CN1CCC(Nc2cccc3c2cc(C#CCNc2ccc(S(N)(=O)=O)cc2O)n3CC(F)(F)F)CC1 (stereo not drawn) [Compound 634A, 3-hydroxy-4-{[3-(4-{[1-(2-hydroxy-3-methoxypropyl)piperidin-4-yl]amino}-1-(2,2,2-trifluoroethyl)-1H-indol-2-yl)prop-2-yn-1-yl]amino}benzene-1-sulfonamide]
COC[C@@H](CN1CCC(Nc2cccc3c2cc(C#CCNc2ccc(S(C)(=O)=O)cc2OC)n3CC(F)(F)F)CC1)OC(=O)C(C)C [Compound 635A, (2R)-1-{4-[(2-{3-[(4-methanesulfonyl-2-methoxyphenyl)amino]prop-1-yn-1-yl}-1-(2,2,2-trifluoroethyl)-1H-indol-4-yl)amino]piperidin-1-yl}-3-methoxypropan-2-yl 2-methylpropanoate]
COCCOc1cc(S(C)(=O)=O)ccc1NCC#Cc1cc2c(NC3CCN(CC(O)COC)CC3)cccc2n1CC(F)(F)F (stereo not drawn) [Compound 637A, 1-(4-{[2-(3-{[4-methanesulfonyl-2-(2-methoxyethoxy)phenyl]amino}prop-1-yn-1-yl)-1-(2,2,2-trifluoroethyl)-1H-indol-4-yl]amino}piperidin-1-yl)-3-methoxypropan-2-ol]
COC[C@H](CN1CCC(Nc2cccc3c2cc(C#CCNc2ccc(S(C)(=O)=O)cc2OC)n3CC(F)(F)F)CC1)OC(=O)C(C)C [Compound 638A, (2S)-1-{4-[(2-{3-[(4-methanesulfonyl-2-methoxyphenyl)amino]prop-1-yn-1-yl}-1-(2,2,2-trifluoroethyl)-1H-indol-4-yl)amino]piperidin-1-yl}-3-methoxypropan-2-yl 2-methylpropanoate]
